Test system: adult female Wistar rats
Assay: Gastric ulcerogenic activity
Assay type: in vivo, rat
Conditions: fasted rats

SMILES	Gastric ulcerogenic potential, gross examination
Cc1ccc(-c2cc(C(F)(F)F)nn2-c2ccc(S(N)(=O)=O)cc2)cc1 [Celecoxib, celecoxib, reference compound]	no ulceration
Cc1ccc(C(C)C)c(O)c1C=NN=c1scc(-c2ccccc2)n1-c1ccccc1 [Compound 6a, 2-((2-Hydroxy-3-isopropyl-6-methylbenzylidene)hydrazono)-3,4-diphenyl-2,3-dihydrothiazole]	no ulceration
Cc1ccc(C(C)C)c(O)c1C=NN=c1scc(-c2ccccc2)n1-c1ccccc1Cl [Compound 6b, 2-((2-Hydroxy-3-isopropyl-6-methylbenzylidene)hydrazono)-3-(2-chlorophenyl)-4-phenyl-2,3-dihydrothiazole]	no ulceration
Cc1ccc(C(C)C)c(O)c1C=NN=c1scc(-c2ccc(Br)cc2)n1-c1ccccc1Cl [Compound 6f, 2-((2-Hydroxy-3-isopropyl-6-methylbenzylidene)hydrazono)-3-(2-chlorophenyl)-4-(4-bromophenyl)-2,3-dihydrothiazole]	no ulceration
O=C(O)Cc1ccccc1Nc1c(Cl)cccc1Cl [Diclofenac sodium, diclofenac sodium, reference compound]	no ulceration

From publication PMC10833116 (Journal of Enzyme Inhibition and Medicinal Chemistry, 2024)
